Experimental data reported in publication PMC9100673, “Acridine Based N-Acylhydrazone Derivatives as Potential Anticancer Agents: Synthesis, Characterization and ctDNA/HSA Spectroscopic Binding Properties” (Molecules, 2022).

Target: T1, human serum albumin (HSA) (Homo sapiens, UniProt P02768)
T1 construct: purchased Sigma (St. Louis, MO, USA)
Test: HSA fluorescence quenching (steady-state fluorescence titration)
Assay type: binding
Conditions: for KSV, Stern–Volmer quenching constant: HSA 4 μM, pH 7.4; for ΔH / ΔS: van't Hoff plot, 25–35 °C; for blue shift of HSA fluorescence emission maximum: λex 280 nm
Method: Human serum albumin (HSA) emission spectra were recorded in the absence and presence of different amounts of acridine derivatives (3a–3d) at a range of 285 to 550 nm upon excitation at 280 nm. The emission maximum of fluorescence intensity of HSA was identified at 340 nm. […] The fluorescence intensity of HSA in the presence of the acridine derivatives decreases in the relation […], with decreases of 58%, 51%, 43% and 38%, respectively. Moreover, the reduction of fluorescence emission of HSA by derivatives 3a–3d was accompanied by an apparent change in the position of the maximum wavelength of the fluorescence emission, with a blue shift of 6 nm (3d) ≈ (3b) < 7 nm (3c) < 8 nm (3a).
The appearance of an isoactinic point at 430 nm might also indicate the existence of an equilibrium between bound and free drugs, with the presence of such an equilibrium possibly emphasizing the formation of the drug–protein complex. Fluorescence quenching can be divided into the two processes of dynamic and static quenching. In dynamic quenching, the fluorophore and quencher are in contact in an excited state, increasing the temperature and resulting in faster diffusion and a higher frequency of collision, which in turn increases the quenching constant. In comparison, static quenching is typical in complexes formed between the fluorophore and quencher in a ground state in which the increasing temperature weakens the stability of the complex. Quantitative analysis was performed by using the Stern–Volmer Equation (1):(1) F0/F=1+KSVQ=1+Kqτ0Q, where F0 and F represent the fluorescence intensity of HSA in the absence and presence of acridine derivatives, respectively. KSV is the Stern–Volmer dynamic quenching constant which was determined from the plot of relative intensity F0/F of fluorescence vs. the concentration of the acridine derivative. Kq is the quenching rate constant of biomolecules, which is known to be around 2.0 × 10^10 M^−1 s^−1, and τ0 is the average lifetime of the fluorophore in the absence of the quencher, with a typical value equal to around 10^−8 for biomolecules. The quenching constant KSV of derivatives 3a–3d were of 10^5 M^−1. The KSV values recorded for derivatives 3a and 3b decreased at increasing temperatures, while those of derivatives 3c and 3d increased at increasing temperatures. The increased KSV values at increasing temperature in the presence of derivative 3c may indicate that the binding forces are mainly hydrophobic (endothermic apolar interactions are strengthened at increasing temperatures). Additionally, the Kq values obtained for HSA of 10^13 M^−1 s^−1 are greater than the limiting diffusion rate constant of diffusional quenching for biopolymers (2.0 × 10^10 M^−1 s^−1).
In order to evaluate the magnitude of the interaction, other parameters such as the binding constant ( Kb) and the number of binding sites (n) on the drug–HSA complex were calculated at three temperatures using Equation (2):(2) logF0−F/F=logKb+nlogQ, where F0 and F are the fluorescence intensity of the fluorophore (HSA) in the absence and presence of the quencher-acridine derivative, and [Q] is the quencher concentration. The values of Kb and n were determined using the linear regression of a plot of log(F0 − F/F) to log[Q] (Figure S3). […] Since the values of Kb were 10^5 M^−1 (3a–3c) or 10^4 M^−1 (3d), it would therefore be suitable for distribution in the plasma in vivo.
Based on the Kb dependency on temperature, it is, therefore, possible to analyse the temperature-dependent thermodynamic parameters which can be considered as responsible for the formation of a complex. […]

T1 sequence (P02768 25-609): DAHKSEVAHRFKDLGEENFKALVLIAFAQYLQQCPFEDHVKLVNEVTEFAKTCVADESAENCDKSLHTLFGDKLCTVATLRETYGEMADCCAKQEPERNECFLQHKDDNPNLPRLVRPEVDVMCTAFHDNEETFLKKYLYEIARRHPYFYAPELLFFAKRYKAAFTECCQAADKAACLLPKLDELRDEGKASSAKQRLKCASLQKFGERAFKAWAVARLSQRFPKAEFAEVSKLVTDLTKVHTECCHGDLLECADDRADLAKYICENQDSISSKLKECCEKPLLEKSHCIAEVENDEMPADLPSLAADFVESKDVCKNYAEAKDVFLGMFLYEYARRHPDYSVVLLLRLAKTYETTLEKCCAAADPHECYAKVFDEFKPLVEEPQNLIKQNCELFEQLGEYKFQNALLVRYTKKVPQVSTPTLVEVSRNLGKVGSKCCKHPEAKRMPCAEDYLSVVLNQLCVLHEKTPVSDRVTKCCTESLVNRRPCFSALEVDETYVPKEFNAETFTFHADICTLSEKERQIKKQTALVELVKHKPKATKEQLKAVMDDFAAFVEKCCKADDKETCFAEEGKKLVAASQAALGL

Kq, bimolecular quenching rate constant (25 °C) [M⁻¹ s⁻¹] | n, number of binding sites (25 °C) | ΔG (25 °C) [kcal/mol] | KSV, Stern–Volmer quenching constant (25 °C) [M⁻¹] | Kq, bimolecular quenching rate constant (30 °C) [M⁻¹ s⁻¹] | n, number of binding sites (30 °C) | ΔG (30 °C) [kcal/mol] | KSV, Stern–Volmer quenching constant (30 °C) [M⁻¹] | Kq, bimolecular quenching rate constant (35 °C) [M⁻¹ s⁻¹] | n, number of binding sites (35 °C) | ΔG (35 °C) [kcal/mol] | KSV, Stern–Volmer quenching constant (35 °C) [M⁻¹] | ΔH [kcal/mol] | ΔS | blue shift of HSA fluorescence emission maximum [nm] | KSV for the HSA-3a complex (without site marker) [M⁻¹] | Kb for the HSA-3a complex (without site marker) [M⁻¹] | SMILES
1.16e+13 | 1.052 | -7.249 | 116000 | 2.06e+13 | 0.917 | -6.828 | 206000 | 2.42e+13 | 0.846 | -6.408 | 242000 | -32.361 | −352.39 ×10^−3 kJ mol^−1 K^−1 | 6 |  |  | O=C(N/N=C/c1cccc2cc3ccccc3nc12)c1ccc(Br)cc1 [3d, N′-[(E)-Acridin-4-ylmethylidene]-4-bromobenzohydrazide]
2.29e+13 | 0.888 | -6.427 | 229000 | 2.48e+13 | 0.925 | -7.108 | 248000 | 2.62e+13 | 1.030 | -7.787 | 262000 | 34.07 | 568.32 ×10^−3 kJ mol^−1 K^−1 | 7 |  |  | O=C(N/N=C/c1cccc2cc3ccccc3nc12)c1ccc(Cl)cc1 [3c, N′-[(E)-Acridin-4-ylmethylidene]-4-chlorobenzohydrazide]
2.67e+13 | 1.068 | -7.918 | 267000 | 2.68e+13 | 1.054 | -7.878 | 268000 | 2.61e+13 | 1.023 | -7.837 | 261000 | -10.33 | −33.80 ×10^−3 kJ mol^−1 K^−1 | 8 | 267000 | 610000 | O=C(N/N=C/c1cccc2cc3ccccc3nc12)c1ccccc1 [3a, N′-[(E)-(Acridin-4-yl)methylidene]benzohydrazide]
1.51e+13 | 1.079 | -7.66 | 151000 | 1.57e+13 | 1.061 | -7.61 | 157000 | 1.37e+13 | 1.039 | -7.557 | 137000 | -10.74 | −43.24 ×10^−3 kJ mol^−1 K^−1 | ~6 |  |  | O=C(N/N=C/c1cccc2cc3ccccc3nc12)c1ccc(F)cc1 [3b, N′-[(E)-Acridin-4-ylmethylidene]-4-fluorobenzohydrazide]
